# Reference: US10286004B2, “Targeting-enhanced anticancer nanoparticles and preparation methods of same” (JINIS CO., LTD., priority 2013, dated 2019)
# Columns and labels:
# [1] = system: large-sized tumor xenografts representing late-stage cancer; assay: Efficacy of doxorubicin nanoparticles in late-stage cancer xenograft; assay type: in vivo, mice; conditions: without LED stated
# Description: The lung cancer cell line NCI-H460-luc2 (Caliper Life Sciences) was prepared in suspension at 5×10^6 cells.
# Tumor growth was monitored using bioluminescence imaging of luciferase-expressing cancer cell lines. Mice were injected intraperitoneally with D-luciferin at a dosage of 150 mg luciferin/kg body weight. Mice were then anesthetized under isoflurane gas supplemented with oxygen and placed under a camera equipped with a Xenogen IVIS 200 imager to generate a bioluminescent image using an IVIS imaging system (Xenogen). Bioluminescence color images were superimposed using Living Image software.
# [2] = Tumor targeting efficacy: drug distribution between tumor and healthy tissues in xenograft mice (LC/MS); assay type: in vivo; conditions: female, athymic nude, mouse, iv; tumor tissue; 10 mg/kg/day i.v.; organs collected 16 hours after administration
# Description: (§1) To evaluate the tumor-targeting characteristics of the targeting-enhanced nanoparticles formulated in the Examples 1 and 2, the nanoparticles were injected into mice containing human breast xenograft tumors, and the distribution of radioactivity between tumor tissues and healthy tissues was analyzed.
# (§2) When the tumors reached a size of ˜100 mm^3, mice were treated intravenously with either saline control or nanoparticle preparations prepared in Examples 1 and 2, at a dose of 10 mg/kg/day. Organs from each mouse were collected at 16 hours after nanoparticle administration and ground completely with the Beadbeater. The analyte drugs were extracted from the ground tissues with acetonitrile, and the drug concentrations in each tissue were analyzed by LC/MS. The drug concentrations delivered to each tissue relative to the Injected Dose (ID) were measured in both healthy and tumor tissues, as shown in Table 3.
# (§3) Targeting-enhanced nanoparticles containing paclitaxel were administered intravenously to mice with tumor xenografts, and at 4 hours after injection, the mice were exposed to a light-emitting diode, LED, at the wavelength of 630 nm at an intensity of […] for 30 minutes.
# [3] = system: human breast xenograft tumors (MDA-MB-231); assay: as above; assay type: in vivo; conditions: 10 mg/kg/day i.v., organs collected 16 hours after administration; for healthy % ID/g: healthy tissues
# Description: as §1, §2, §3
# [4] = system: healthy mice; assay: Toxicity (LD50) in healthy mice; assay type: in vivo; conditions: monitored 14 days, based on mortality
# Description: After establishment of the tumor-xenograft model, either healthy mice or tumor-xenografted mice were divided into three groups (n=6) receiving saline solution (control group), free paclitaxel at the indicated dose, or targeting-enhanced nanoparticles in saline solution at the indicated dose of paclitaxel. […] To evaluate their toxicity, targeting-enhanced nanoparticles were administered to healthy mice and tumor-xenograft mice at 10 different dosages of paclitaxel: 20, 40, 60, 80, 100, 120, 250, 300, 350, and 400 mg/kg/day. Body weights and physical changes were monitored over 14 days, and the LD50s were calculated based on mortality.
tissue uptake at 16 h [2] [%ID/g],healthy % ID/g [3],Compound,tumor growth day 0 to day 28 (FIG. 10) [1],tumor % ID/g ([3]; tumor tissue) [% ID/g],LD50 [4] [mg/kg/day]
1.5,0.4~3.4 % ID/g,"COc1cccc2c1C(=O)c1c(O)c3c(c(O)c1C2=O)C[C@@](O)(C(=O)CO)C[C@@H]3O[C@H]1C[C@H](N)[C@H](O)[C@H](C)O1 [Free drug doxorubicin, doxorubicin]",clear tumor growth,–,–
2.4,0.2~4.2 % ID/g,"Nc1ccn([C@@H]2O[C@H](CO)[C@@H](O)C2(F)F)c(=O)n1 [Free drug gemcitabine, gemcitabine]",–,–,–

Compound,tissue uptake at 16 h [2] [%ID/g],healthy % ID/g [3],tumor growth day 0 to day 28 (FIG. 10) [1],tumor % ID/g ([3]; tumor tissue) [% ID/g],LD50 [4] [mg/kg/day]
"O=C1[O][Pt]2([NH][C@@H]3CCCC[C@H]3[NH]2)[O]C1=O [Free drug oxaliplatin, oxaliplatin]",–,0.1~3.5 % ID/g,–,2.5,–
"CC(=O)O[C@H]1C(=O)[C@@]2(C)[C@H]([C@H](OC(=O)c3ccccc3)[C@]3(O)C[C@H](OC(=O)[C@H](O)[C@@H](NC(=O)c4ccccc4)c4ccccc4)C(C)=C1C3(C)C)[C@]1(OC(C)=O)CO[C@@H]1C[C@@H]2O [Free drug paclitaxel, paclitaxel]",0.52,–,–,–,30
